≈ marks a conversion by molar mass, not a printed value.
Tests used:
[1] = tested on: Enterococcus faecalis; experiment: Minimum inhibitory concentration against 559 glycopeptide susceptible enterococci Enterococcus faecalis; format: functional
[2] = tested on: Staphylococcus aureus; experiment: Minimum inhibitory concentration against glycopeptide intermediate-resistant 3798 Staphylococcus aureus; format: functional
[3] = tested on: Human immunodeficiency virus 2; experiment: Effective concentration against human immunodeficiency virus type 2; format: functional, organism-based
[4] = tested on: Enterococcus faecium; experiment: Minimum inhibitory concentration against glycopeptide resistant enterococci 569 Enterococcus faecium; format: functional
[5] = tested on: Staphylococcus aureus; experiment: Minimum inhibitory concentration against glycopeptide intermediate-resistant 3797 Staphylococcus aureus; format: functional
[6] = tested on: Enterococcus faecalis; experiment: Minimum inhibitory concentration against glycopeptide resistant enterococci 560 Enterococcus faecalis; format: functional
[7] = tested on: MOLT-4; experiment: Cytostatic activity to the compound against Molt4/C8 cell line; format: functional, cell-based; settings: Homo sapiens
[8] = tested on: CCRF-CEM; experiment: Cytostatic activity to the compound against CEM cell line; format: functional, cell-based; settings: Homo sapiens
[9] = tested on: Staphylococcus haemolyticus; experiment: Minimum inhibitory concentration against 602 Staphylococcus haemolyticus; format: functional
[10] = tested on: Moloney murine sarcoma virus; experiment: Effective concentration against Moloney sarcoma virus; format: functional, organism-based, Viruses
[11] = tested on: L1210; experiment: Cytostatic activity against L1210 cell line; format: functional, cell-based; settings: Mus musculus
[12] = tested on: Staphylococcus epidermidis; experiment: Minimum inhibitory concentration against 533 Staphylococcus epidermidis; format: functional
[13] = tested on: Enterococcus faecium; experiment: Minimum inhibitory concentration against glycopeptide susceptible enterococci 568 Enterococcus faecium; format: functional
[14] = tested on: C3H/3T3; experiment: Minimal cytotoxic concentration to cause an alteration in C3H/3T3 cell line morphology; format: functional; settings: Mus musculus
[15] = tested on: Human immunodeficiency virus 1; experiment: Effective concentration against human immunodeficiency virus type 1; format: functional, organism-based

Row | SMILES | MIC [1] [µg/mL] | MIC [2] [µg/mL] | EC50 [3] [µM] | MIC [4] [µg/mL] | MIC [5] [µg/mL] | MIC [6] [µg/mL] | IC50 [7] [µM] | IC50 [8] [µM] | MIC [9] [µg/mL] | EC50 [10] [µM] | IC50 [11] [µM] | MIC [12] [µg/mL] | MIC [13] [µg/mL] | MCC [14] [µg/mL] | EC50 [15] [µM]
1 | NCCCCCCCCCCNC(=O)[C@H]1NC(=O)[C@H]2NC(=O)[C@H](NC(=O)[C@@H]3NC(=O)[C@H](CC(N)=O)NC(=O)[C@H](N)[C@H](O)c4ccc(c(Cl)c4)Oc4cc3cc(c4O)Oc3ccc(cc3)[C@H]2O)c2ccc(O)c(c2)-c2c(O)cc(O)cc21 | > 64 | > 32 | ≥ 25 | > 64 | > 32 | > 64 | ≥ 250 | 124 | > 32 | > 4 | ≥ 250 | > 32 | > 64 | 20 | ≥ 25
2 | CN[C@H](CC(C)C)C(=O)N[C@H]1C(=O)N[C@@H](CC(N)=O)C(=O)N[C@H]2C(=O)N[C@H]3C(=O)N[C@H](C(=O)N[C@H](C(=O)O)c4cc(O)cc(O)c4-c4cc3ccc4O)[C@H](O)c3ccc(cc3)Oc3cc2cc(c3O)Oc2ccc(cc2Cl)[C@H]1O | 16 (≈ 14.4 µM) | > 64 | ≥ 250 | > 128 | > 64 | > 128 | > 500 | > 500 | 16 (≈ 14.4 µM) | > 100 | > 500 | 32 (≈ 28.8 µM) | 32 (≈ 28.8 µM) | > 100 | 50
3 | NC(=O)C[C@@H]1NC(=O)[C@H](N)[C@H](O)c2ccc(cc2)Oc2cc3cc(c2O)Oc2ccc(cc2)[C@@H](O)[C@@H]2NC(=O)[C@H](NC(=O)[C@@H]3NC1=O)c1ccc(O)c(c1)-c1c(O)cc(O)cc1[C@@H](C(=O)O)NC2=O | > 128 | > 128 |  | > 128 | > 128 | > 128 |  |  | > 128 |  |  | > 128 | > 128 |  | 
4 | CN[C@H](CC(C)C)C(=O)N[C@H]1C(=O)N[C@@H](CC(N)=O)C(=O)N[C@H]2C(=O)N[C@H]3C(=O)N[C@H](C(=O)N[C@H](C(=O)NCC45CC6CC(CC(C6)C4)C5)c4cc(O)cc(O)c4-c4cc3ccc4O)[C@H](O)c3ccc(cc3)Oc3cc2cc(c3O)Oc2ccc(cc2Cl)[C@H]1O | 4 (≈ 3.18 µM) | 8 (≈ 6.37 µM) | 7 | 8 (≈ 6.37 µM) | 8 (≈ 6.37 µM) | 8 (≈ 6.37 µM) | 126 | 148 | 8 (≈ 6.37 µM) | 12 | 94 | 8 (≈ 6.37 µM) | 8 (≈ 6.37 µM) | 100 | 1.6
5 | NC(=O)C[C@@H]1NC(=O)[C@H](N)[C@H](O)c2ccc(cc2)Oc2cc3cc(c2O)Oc2ccc(cc2)[C@@H](O)[C@@H]2NC(=O)[C@H](NC(=O)[C@@H]3NC1=O)c1ccc(O)c(c1)-c1c(O)cc(O)cc1[C@@H](C(=O)NCC13CC4CC(CC(C4)C1)C3)NC2=O | > 64 | > 32 | 25.7 | > 64 | > 32 | > 64 | ≥ 250 | ≥ 250 | > 32 | 2.6 | > 250 | > 32 | > 64 | 100 | 30
6 | NC(=O)C[C@@H]1NC(=O)[C@H](N)[C@H](O)c2ccc(c(Cl)c2)Oc2cc3cc(c2O)Oc2ccc(cc2)[C@@H](O)[C@@H]2NC(=O)[C@H](NC(=O)[C@@H]3NC1=O)c1ccc(O)c(c1)-c1c(O)cc(O)cc1[C@@H](C(=O)NCC13CC4CC(CC(C4)C1)C3)NC2=O | > 64 | > 32 | 3.5 | > 64 | > 32 | > 64 | > 250 | > 250 | > 32 |  | 175 | > 32 | > 64 |  | 5.5
7 | CN[C@H](CC(C)C)C(=O)N[C@H]1C(=O)N[C@@H](CC(N)=O)C(=O)N[C@H]2C(=O)N[C@H]3C(=O)N[C@H](C(=O)N[C@H](C(=O)NCCCCCCCCCCN)c4cc(O)cc(O)c4-c4cc3ccc4O)[C@H](O)c3ccc(c(Cl)c3)Oc3cc2cc(c3O)Oc2ccc(cc2Cl)[C@H]1O [listing 1 of 2 here] |  |  | 18.3 |  |  |  | 228 | ≥ 250 |  | 5 | > 250 |  |  |  | 2.5
8 | CN[C@H](CC(C)C)C(=O)N[C@H]1C(=O)N[C@@H](CC(N)=O)C(=O)N[C@H]2C(=O)N[C@H]3C(=O)N[C@H](C(=O)N[C@H](C(=O)NCCCCCCCCCCN)c4cc(O)cc(O)c4-c4cc3ccc4O)[C@H](O)c3ccc(c(Cl)c3)Oc3cc2cc(c3O)Oc2ccc(cc2Cl)[C@H]1O [listing 2 of 2 here] | 0.5 (≈ 0.385 µM) | 2 (≈ 1.54 µM) |  | 16 (≈ 12.3 µM) | 2 (≈ 1.54 µM) | 16 (≈ 12.3 µM) |  |  | 1 (≈ 0.77 µM) |  |  | 2 (≈ 1.54 µM) | 2 (≈ 1.54 µM) | ≥ 20 | 
9 | CN[C@H](CC(C)C)C(=O)N[C@H]1C(=O)N[C@@H](CC(N)=O)C(=O)N[C@H]2C(=O)N[C@H]3C(=O)N[C@H](C(=O)N[C@H](C(=O)NC4C5CC6CC(C5)CC4C6)c4cc(O)cc(O)c4-c4cc3ccc4O)[C@H](O)c3ccc(cc3)Oc3cc2cc(c3O)Oc2ccc(cc2Cl)[C@H]1O (stereo partly specified) | 8 (≈ 6.44 µM) | 16 (≈ 12.9 µM) | 20 | 32 (≈ 25.7 µM) | 16 (≈ 12.9 µM) | 32 (≈ 25.7 µM) | > 250 | > 250 | 16 (≈ 12.9 µM) | > 4 | > 250 | 16 (≈ 12.9 µM) | 16 (≈ 12.9 µM) | 20 | 8.5
10 | CN[C@H](CC(C)C)C(=O)N[C@H]1C(=O)N[C@@H](CC(N)=O)C(=O)N[C@H]2C(=O)N[C@H]3C(=O)N[C@H](C(=O)N[C@H](C(=O)NC4C5CC6CC(C5)CC4C6)c4cc(O)cc(O)c4-c4cc3ccc4O)[C@H](O)c3ccc(c(Cl)c3)Oc3cc2cc(c3O)Oc2ccc(cc2Cl)[C@H]1O (stereo partly specified) [listing 1 of 2 here] |  |  | 8.5 |  |  |  | ≥ 250 | > 250 |  | 13 | ≥ 250 |  |  |  | 3
11 | CN[C@H](CC(C)C)C(=O)N[C@H]1C(=O)N[C@@H](CC(N)=O)C(=O)N[C@H]2C(=O)N[C@H]3C(=O)N[C@H](C(=O)N[C@H](C(=O)NC4C5CC6CC(C5)CC4C6)c4cc(O)cc(O)c4-c4cc3ccc4O)[C@H](O)c3ccc(c(Cl)c3)Oc3cc2cc(c3O)Oc2ccc(cc2Cl)[C@H]1O (stereo partly specified) [listing 2 of 2 here] | 2 (≈ 1.57 µM) | 4 (≈ 3.13 µM) |  | 32 (≈ 25.1 µM) | 4 (≈ 3.13 µM) | 32 (≈ 25.1 µM) |  |  | 4 (≈ 3.13 µM) |  |  | 4 (≈ 3.13 µM) | 2 (≈ 1.57 µM) | 100 | 
12 | CN[C@H](CC(C)C)C(=O)N[C@H]1C(=O)N[C@@H](CC(N)=O)C(=O)N[C@H]2C(=O)N[C@H]3C(=O)N[C@H](C(=O)N[C@H](C(=O)NCCCCCCCCCCN)c4cc(O)cc(O)c4-c4cc3ccc4O)[C@H](O)c3ccc(cc3)Oc3cc2cc(c3O)Oc2ccc(cc2Cl)[C@H]1O | 8 (≈ 6.33 µM) | 8 (≈ 6.33 µM) | 25 | 32 (≈ 25.3 µM) | 8 (≈ 6.33 µM) | 32 (≈ 25.3 µM) | 196 | 202 | 8 (≈ 6.33 µM) | > 4 | ≥ 250 | 8 (≈ 6.33 µM) | 8 (≈ 6.33 µM) | 20 | 8.5
13 | CN[C@H](CC(C)C)C(=O)N[C@H]1C(=O)N[C@@H](CC(N)=O)C(=O)N[C@H]2C(=O)N[C@H]3C(=O)N[C@H](C(=O)N[C@H](C(=O)O)c4cc(O)cc(O)c4-c4cc3ccc4O)[C@H](O)c3ccc(c(Cl)c3)Oc3cc2cc(c3O)Oc2ccc(cc2Cl)[C@H]1O [listing 1 of 2 here] |  |  | ≥ 250 |  |  |  | > 500 | > 500 |  | 100 | > 500 |  |  |  | 65
14 | CN[C@H](CC(C)C)C(=O)N[C@H]1C(=O)N[C@@H](CC(N)=O)C(=O)N[C@H]2C(=O)N[C@H]3C(=O)N[C@H](C(=O)N[C@H](C(=O)O)c4cc(O)cc(O)c4-c4cc3ccc4O)[C@H](O)c3ccc(c(Cl)c3)Oc3cc2cc(c3O)Oc2ccc(cc2Cl)[C@H]1O [listing 2 of 2 here] | 2 (≈ 1.75 µM) | 4 (≈ 3.5 µM) |  | > 64 | 4 (≈ 3.5 µM) | > 64 |  |  | 8 (≈ 6.99 µM) |  |  | 4 (≈ 3.5 µM) | 4 (≈ 3.5 µM) | > 100 | 
15 | NCCCCCCCCCCNC(=O)[C@H]1NC(=O)[C@H]2NC(=O)[C@H](NC(=O)[C@@H]3NC(=O)[C@H](CC(N)=O)NC(=O)[C@H](N)[C@H](O)c4ccc(cc4)Oc4cc3cc(c4O)Oc3ccc(cc3)[C@H]2O)c2ccc(O)c(c2)-c2c(O)cc(O)cc21 | > 64 | > 32 | > 25 | > 64 | > 32 | > 64 | 144 | 106 | > 32 | 7.8 | ≥ 250 | > 32 | > 64 | ≥ 20 | > 25
16 | CN[C@H](CC(C)C)C(=O)N[C@H]1C(=O)N[C@@H](CC(N)=O)C(=O)N[C@H]2C(=O)N[C@H]3C(=O)N[C@H](C(=O)N[C@H](C(=O)NCC45CC6CC(CC(C6)C4)C5)c4cc(O)cc(O)c4-c4cc3ccc4O)[C@H](O)c3ccc(c(Cl)c3)Oc3cc2cc(c3O)Oc2ccc(cc2Cl)[C@H]1O [listing 1 of 2 here] |  |  | 9.5 |  |  |  | 72 | ≥ 250 |  | 10 | ≥ 250 |  |  |  | 3
17 | CN[C@H](CC(C)C)C(=O)N[C@H]1C(=O)N[C@@H](CC(N)=O)C(=O)N[C@H]2C(=O)N[C@H]3C(=O)N[C@H](C(=O)N[C@H](C(=O)NCC45CC6CC(CC(C6)C4)C5)c4cc(O)cc(O)c4-c4cc3ccc4O)[C@H](O)c3ccc(c(Cl)c3)Oc3cc2cc(c3O)Oc2ccc(cc2Cl)[C@H]1O [listing 2 of 2 here] | 1 (≈ 0.774 µM) | 2 (≈ 1.55 µM) |  | 16 (≈ 12.4 µM) | 2 (≈ 1.55 µM) | 16 (≈ 12.4 µM) |  |  | 2 (≈ 1.55 µM) |  |  | 2 (≈ 1.55 µM) | 2 (≈ 1.55 µM) | ≥ 100 | 

From ChEMBL document CHEMBL1139533, “Structure-activity relationship studies of a series of antiviral and antibacterial aglycon derivatives of the glycopeptide antibiotics vancomycin, eremomycin, and dechloroeremomycin” (J Med Chem, 2005)
